For series [1], the system named is prostate cancer (PC-3) cell line. Nature of the series: SRB cytotoxicity assay, PC-3 cells. In kind it is cell-based, human. The conditions noted are these: for inhibition of cell proliferation / cytotoxic effect (in words), PC-3: tested until 100 µM. How it is done: (§1) Fig. 3 The effect of synthesized compounds against the highly metastatic cancer cell lines PC-3 and MG-63 cell lines after 72 h incubation and viability was assessed by the SRB assay. Values represent the mean ± SD of three independent experiments
(§2) The SRB assay was used to evaluate the effect of the synthesized selenium containing heterocyclic compounds on cancer cells according to the previous literatures (see Supporting Information).
(§3) The human prostate cancer cells (PC3) and human osteosarcoma cells (MG-63) were obtained from Nawah Scientific Inc. (Mokatam, Cairo, Egypt) and cultured in DMEM (Dulbecco’s modified eagle’s medium), Gibco, USA, supplemented with fetal bovine serum (FBS) at a concentration of 10% and 100 U/mL of penicillin and streptomycin (PS). The Cells were incubated at 37 °C in a humidified environment that contained 5% CO2.
(§4) Cells were seeded in 96-well plates as aliquots of 100 μL cell suspension and incubated in a complete media for 24 h. Afterward, cells were treated with synthesized compounds at diverse concentrations ranging from 0.01 μM to 100 μM for 72 h. Then, cells were fixed at 4 °C for one hour with 150 μL of 10% trichloroacetic acid (TCA). After washing the cells five times with distilled water, 70 μL of sulforhodamine (SRB) solution (0.4% w/v) was added and incubated for 10 min at room temperature in a dark place. Cells were washed with 1% acetic acid three times and allowed to air-dry. Then, 150 μL of Tris pH 10.5 (10 mM) was added, and the absorbance was measured at 540 nm using a BMG LABTECH®- FLUOstar Omega microplate reader (Ortenberg, Germany). Half maximal inhibitory concentrations (IC50) values were calculated for each experiment using GraphPad Prism 6 software. IC50 values were reported as mean ± SD [53].
A general note: Sulforhodamine B stains cellular protein and so reports cell mass.

The test system of series [2] is osteosarcoma (MG-63) cell line. In words: SRB cytotoxicity assay, MG-63 cells. The class given is cell-based, human. The following applies: for inhibition of cell proliferation / cytotoxic effect (in words), MG-63: tested until 100 µM. On the procedure:
as §1, §2, §3, §4

For another series, the target named is T1, EGFR kinase (Homo sapiens, UniProt P00533).
T1 construct: purchased cloud clone SEA757Hu
T1 sequence (P00533 25-1210): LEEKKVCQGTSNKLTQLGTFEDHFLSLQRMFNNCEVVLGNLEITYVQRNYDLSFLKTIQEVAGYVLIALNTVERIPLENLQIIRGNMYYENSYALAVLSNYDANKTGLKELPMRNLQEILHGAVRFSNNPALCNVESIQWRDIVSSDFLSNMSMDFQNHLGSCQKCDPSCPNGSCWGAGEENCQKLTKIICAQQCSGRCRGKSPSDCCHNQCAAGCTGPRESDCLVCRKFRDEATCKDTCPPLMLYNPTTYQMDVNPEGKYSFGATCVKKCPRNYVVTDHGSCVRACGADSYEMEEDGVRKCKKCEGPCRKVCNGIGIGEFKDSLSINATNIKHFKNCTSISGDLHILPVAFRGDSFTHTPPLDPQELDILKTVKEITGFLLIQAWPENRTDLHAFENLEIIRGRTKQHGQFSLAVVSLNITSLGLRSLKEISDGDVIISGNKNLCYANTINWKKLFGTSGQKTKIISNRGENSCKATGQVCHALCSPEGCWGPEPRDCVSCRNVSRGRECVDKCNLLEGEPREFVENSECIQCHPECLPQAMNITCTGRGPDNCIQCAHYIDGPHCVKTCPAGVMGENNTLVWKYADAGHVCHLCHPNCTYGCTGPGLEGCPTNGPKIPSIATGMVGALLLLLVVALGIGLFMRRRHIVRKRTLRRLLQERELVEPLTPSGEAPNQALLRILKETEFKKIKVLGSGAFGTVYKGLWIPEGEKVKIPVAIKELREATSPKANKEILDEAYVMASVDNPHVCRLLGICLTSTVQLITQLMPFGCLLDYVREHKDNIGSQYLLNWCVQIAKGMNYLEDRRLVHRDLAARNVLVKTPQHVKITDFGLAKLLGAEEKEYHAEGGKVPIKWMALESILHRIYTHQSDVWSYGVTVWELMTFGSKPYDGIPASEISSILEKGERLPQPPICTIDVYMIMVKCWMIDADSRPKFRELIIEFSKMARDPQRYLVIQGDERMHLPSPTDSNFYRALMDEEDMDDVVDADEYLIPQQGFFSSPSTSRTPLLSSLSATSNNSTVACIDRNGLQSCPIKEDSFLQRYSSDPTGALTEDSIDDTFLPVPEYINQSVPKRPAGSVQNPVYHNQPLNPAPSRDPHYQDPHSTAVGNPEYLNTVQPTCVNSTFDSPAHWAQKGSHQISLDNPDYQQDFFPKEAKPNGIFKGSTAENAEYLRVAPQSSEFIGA
Nature of the series: EGFR-TK cell-free inhibitory assay. The class given is biochemical. On the procedure: A cell-free assay was used to investigate the mechanism of inhibition of EGFR kinase according to the reported method (see Supporting Information).
A cell-free assay was used to investigate the mechanism of inhibition of EGFR kinase according to the reported method. […] 200 µM (EGFR) was used. […] Mean values of two independent replicates for each experiment were used for the interpolation.

The mark [3] stands for this setting: Homo sapiens, PC-3, 72 h, read-out: IC50 values (µM) PC-3, SRB assay, 72 h incubation, mean ± SD.
[4] abbreviates: Homo sapiens, MG-63, 72 h, read-out: IC50 values (µM) MG-63, SRB assay, 72 h incubation, mean ± SD.
Where [5] appears, read: read-out: IC50 values (µM) PC-3, SRB assay, 72 h incubation, mean ± SD.
Setting [6] is: read-out: IC50 values (µM) MG-63, SRB assay, 72 h incubation, mean ± SD.
[7] abbreviates: Homo sapiens, PC-3, 72 h, SRB assay, 72 h incubation, mean ± SD, read-out: IC50 values (µM) PC-3.
[8] abbreviates: Homo sapiens, MG-63, 72 h, SRB assay, 72 h incubation, mean ± SD, read-out: IC50 values (µM) MG-63.

Like-named read-outs stand apart in the source and are kept apart here.

A word on the melting point: it is the temperature, or range, at which the solid turns liquid. `C[Se]c1nc(N)cc(N)c1C#N` yielded a melting point of 148 to 150 °C.
Same read-out and setting: for `N#CC[Se]c1nc(N)c(Br)c(N)c1C#N` the value was 176 to 178 °C; for `N#Cc1c([Se][Se]c2nc(N)c(Sc3ccccc3)c(N)c2C#N)nc(N)c(Sc2ccccc2)c1N`, 198 to 200 °C; for `N#Cc1c([Se][Se]c2nc(N)c(Sc3ccc(Cl)cc3)c(N)c2C#N)nc(N)c(Sc2ccc(Cl)cc2)c1N`, 236 to 238 °C.
Usually IC50 stands for the concentration at which inhibition is half-maximal. `N#Cc1[se]c2nc(N)cc(N)c2c1N` [Compound 2, 3,4,6-triamino-2-cyanoselenopheno[2,3-b]pyridine] showed a melting point of 258 to 260 °C. Also, the concentration for half-maximal inhibition (IC50) in series [1] (setting [3]) is above 100 µM. For the same compound, in series [1] (SRB assay), the “inhibition of cell proliferation / cytotoxic effect (in words), PC-3” value was “without significant inhibition of cell proliferation”. For the same compound, the 50% inhibitory concentration (IC50) in series [2] (setting [4]) was above 100 µM. Moreover, in series [2] (SRB assay), the “inhibition of cell proliferation / cytotoxic effect (in words), MG-63” value is “without significant inhibition of cell proliferation”.
For `CN(C)c1cc(N)c(C#N)c([Se][Se]c2nc(N(C)C)cc(N)c2C#N)n1` [Compound 4], the melting point was in the range of 172 to 174 °C. For the same compound, the IC50 in series [1] (setting [3]) was 233 ± 2.6 µM. For the same compound, the “inhibition of cell proliferation / cytotoxic effect (in words), PC-3” value in series [1] (SRB assay) is “without significant inhibition of cell proliferation”. In addition, in series [2] (setting [4]), the concentration for half-maximal inhibition (IC50) stood at 240 ± 3.2 µM. Besides, the “inhibition of cell proliferation / cytotoxic effect (in words), MG-63” value in series [2] (SRB assay) is “without significant inhibition of cell proliferation”.
Take `N#Cc1[se]c2nc(N)c(Br)c(N)c2c1N` [Compound 7, 3,4,6-triamino-5-bromoselenopheno[2,3-b]pyridine-2-carbonitrile]: the melting point lay in the range of 268 to 270 °C. The half-maximal inhibitory concentration (IC50) in series [1] (setting [3]) was above 100 µM. For the same compound, in series [1] (SRB assay), the “inhibition of cell proliferation / cytotoxic effect (in words), PC-3” value is on record as “without significant inhibition of cell proliferation”. The IC50 in series [2] (setting [4]) was above 100 µM. The “inhibition of cell proliferation / cytotoxic effect (in words), MG-63” value in series [2] (SRB assay) is “without significant inhibition of cell proliferation”.
Take `Nc1nc2[se]c(-c3nc4ccccc4s3)c(N)c2c(N)c1Br` [Compound 9, 2-(benzo[d]thiazol-2-yl)-5-bromo-selenopheno[2,3-b]-pyridine-3,4,6-triamine]: the half-inhibitory concentration (IC50) came to 51.1 ± 3 µM in series [1] (setting [3]) and 62.8 ± 3.45 µM in series [2] (setting [4]). In series [1] (SRB assay), the “inhibition of cell proliferation / cytotoxic effect (in words), PC-3” value was “low cytotoxic effects”. Also, the “inhibition of cell proliferation / cytotoxic effect (in words), MG-63” value in series [2] (SRB assay) is listed as “low cytotoxic effects”.
With `CC(=O)Nc1cc2c3c(c(C#N)[se]c3n1)N=C(C)N2` [Compound 11, N-(2-cyano-4-methyl-5H-1-seleno-3,5,8-triazaacenaphthylen-7-yl)acetamide], the IC50 in series [1] (setting [3]) worked out at 34.7 ± 0.77 µM; in series [2] (setting [4]) it was 62.2 ± 1.51 µM. In series [1] (SRB assay), the “inhibition of cell proliferation / cytotoxic effect (in words), PC-3” value is reported as “low cytotoxic effects”. Besides, in series [2] (SRB assay), the “inhibition of cell proliferation / cytotoxic effect (in words), MG-63” value is listed as “low cytotoxic effects”.
`N#Cc1[se]c2nc(N)c(N=Nc3ccccc3)c(N)c2c1N` [Compound 12a, 3,4,6-Triamino-5-[phenyldiazenyl]selenopheno[2,3-b]pyridine-2-carbonitrile]: the half-maximal inhibitory concentration (IC50) was below 4 µM in series [1] (setting [3]); 2.69 ± 0.03 µM in series [1] (setting [5]); below 4 µM in series [2] (setting [4]); 3.45 ± 0.2 µM in series [2] (setting [6]); 0.301 ± 0.012 µM at EGFR kinase.
For `Cc1ccc(N=Nc2c(N)nc3[se]c(C#N)c(N)c3c2N)cc1` [Compound 12b, 3,4,6-Triamino-5-(4-methylphenyl)diazenylselenopheno[2,3-b]pyridine-2-carbonitrile], the half-inhibitory concentration (IC50) was below 4 µM in series [1] (setting [3]); 2.59 ± 0.02 µM in series [1] (setting [5]); below 4 µM in series [2] (setting [4]); 3.37 ± 0.22 µM in series [2] (setting [6]); 0.123 ± 0.004 µM on EGFR kinase.
For `COc1ccc(N=Nc2c(N)nc3[se]c(C#N)c(N)c3c2N)cc1` [Compound 12c, 3,4,6-Triamino-5-[(4-methoxyphenyl)diazenyl]selenopheno[2,3-b]pyridine-2-carbonitrile], the concentration for half-maximal inhibition (IC50) in series [1] (setting [3]) was below 4 µM; in series [1] (setting [5]), 2.75 ± 0.09 µM; in series [2] (setting [4]), below 4 µM; in series [2] (setting [6]) it was 3.37 ± 0.12 µM.
`N#Cc1[se]c2nc(N)c(N=Nc3ccc(Cl)cc3)c(N)c2c1N` [Compound 12d, 3,4,6-Triamino-5-[(4-chlorophenyl)diazenyl]selenopheno[2,3-b]pyridine-2-carbonitrile]: the IC50 in series [1] (setting [3]) is below 4 µM; in series [1] (setting [5]) it was 3.08 ± 0.01 µM; in series [2] (setting [4]) it was below 4 µM; in series [2] (setting [6]), 3.93 ± 0.23 µM.
Consider `COc1cccc2c1C(=O)c1c(O)c3c(c(O)c1C2=O)C[C@@](O)(C(=O)CO)C[C@@H]3O[C@H]1C[C@H](N)[C@H](O)[C@H](C)O1` [DOX, doxorubicin, reference compound], for which the half-maximal inhibitory concentration (IC50) in series [1] (setting [7]) turned out to be 7.6 ± 0.45 µM; in series [2] (setting [8]), 9.4 ± 1.1 µM.
Take `CS(=O)(=O)CCNCc1ccc(-c2ccc3ncnc(Nc4ccc(OCc5cccc(F)c5)c(Cl)c4)c3c2)o1` [Lapatinib, lapatinib, reference compound]: the IC50 was 0.13 ± 0.04 µM in series [1] (setting [7]) and 0.47 ± 0.03 µM in series [2] (setting [8]).
